Laboratory results reported in a compilation of properties of binary mixtures (doi:10.1016/j.molliq.2020.113163).

Test: xn = mol fraction of the nth substance listed
Details: 101 kPa, x1 = 0.8

| Structure (SMILES) | electrical conductivity (338.15 K) | viscosity (338.15 K) | electrical conductivity (358.15 K) | viscosity (358.15 K) | electrical conductivity (368.15 K) | viscosity (368.15 K) | electrical conductivity (328.15 K) | viscosity (328.15 K) | electrical conductivity (348.15 K) | viscosity (348.15 K) |
| --- | --- | --- | --- | --- | --- | --- | --- | --- | --- | --- |
| C1CCC2=NCCCN2CC1 + O=S(=O)([N-]S(=O)(=O)C(F)(F)F)C(F)(F)F.[Li+] | 0.0047 S/m | 977 mPa·s | 0.0256 S/m | 160.9 mPa·s | 0.0438 S/m | 82.4 mPa·s |  |  |  |  |
| C1CN=C2CCCN2C1 + O=S(=O)([N-]S(=O)(=O)C(F)(F)F)C(F)(F)F.[Li+] |  |  | 0.0966 S/m | 63.5 mPa·s |  |  | 0.0252 S/m | 566 mPa·s | 0.0633 S/m | 116.3 mPa·s |
